{"source": "ChEMBL document CHEMBL3758109", "about": "“A novel triazole derivative of betulinic acid induces extrinsic and intrinsic apoptosis in human leukemia HL-60 cells” (Eur J Med Chem, 2016)", "key": {"[1]": {"assay": "Cytotoxicity against human HL60 cells assessed as cell growth inhibition at 10 uM after 48 hrs by MTT assay", "assay_type": "functional", "conditions": "HL-60, 48 h, read-out: GI"}, "[2]": {"assay": "Cytotoxicity against human MIAPaCa2 cells assessed as cell growth inhibition at 10 uM after 48 hrs by MTT assay", "assay_type": "functional", "conditions": "MIA PaCa-2, 48 h, read-out: GI"}, "[3]": {"assay": "Cytotoxicity against human PC3 cells assessed as cell growth inhibition at 10 uM after 48 hrs by MTT assay", "assay_type": "functional", "conditions": "PC-3, 48 h, read-out: GI"}, "A549 [4]": {"test_system": "A549", "assay": "Cytotoxicity against human A549 cells assessed as cell growth inhibition at 10 uM after 48 hrs by MTT assay", "assay_type": "functional", "conditions": "A549, 48 h, read-out: GI"}, "[5]": {"assay": "Cytotoxicity against human HL60 cells assessed as cell growth inhibition after 48 hrs by MTT assay", "assay_type": "functional, cell-based", "conditions": "HL-60, 48 h"}, "[6]": {"assay": "Cytotoxicity against human MIAPaCa2 cells assessed as cell growth inhibition after 48 hrs by MTT assay", "assay_type": "functional, cell-based", "conditions": "MIA PaCa-2, 48 h"}, "[7]": {"assay": "Cytotoxicity against human PC3 cells assessed as cell growth inhibition after 48 hrs by MTT assay", "assay_type": "functional, cell-based", "conditions": "PC-3, 48 h"}, "A549 [8]": {"test_system": "A549", "assay": "Cytotoxicity against human A549 cells assessed as cell growth inhibition after 48 hrs by MTT assay", "assay_type": "functional, cell-based", "conditions": "A549, 48 h"}, "HL-60 [9]": {"test_system": "HL-60", "assay": "Induction of apoptosis in human HL60 cells at 5 uM after 24 hrs by propidium iodide staining based flow cytometry (reference value: 3%)", "assay_type": "functional"}, "HL-60 [10]": {"test_system": "HL-60", "assay": "Induction of apoptosis in human HL60 cells at 10 uM after 24 hrs by propidium iodide staining based flow cytometry (reference value: 3%)", "assay_type": "functional"}, "HL-60 [11]": {"test_system": "HL-60", "assay": "Induction of apoptosis in human HL60 cells at 20 uM after 24 hrs by propidium iodide staining based flow cytometry (reference value: 3%)", "assay_type": "functional"}, "[12]": {"assay": "Cell cycle arrest in human HL60 cells assessed as accumulation at G1 phase at 5 uM after 24 hrs by propidium iodide staining based flow cytometry (reference value: 46%)", "assay_type": "functional", "conditions": "HL-60"}, "[13]": {"assay": "Cell cycle arrest in human HL60 cells assessed as accumulation at G1 phase at 10 uM after 24 hrs by propidium iodide staining based flow cytometry (reference value: 46%)", "assay_type": "functional", "conditions": "HL-60"}, "[14]": {"assay": "Cell cycle arrest in human HL60 cells assessed as accumulation at G1 phase at 20 uM after 24 hrs by propidium iodide staining based flow cytometry (reference value: 46%)", "assay_type": "functional", "conditions": "HL-60"}, "[15]": {"assay": "Cell cycle arrest in human HL60 cells assessed as accumulation at S phase at 5 uM after 24 hrs by propidium iodide staining based flow cytometry (reference value: 48%)", "assay_type": "functional", "conditions": "HL-60"}, "[16]": {"assay": "Cell cycle arrest in human HL60 cells assessed as accumulation at S phase at 10 uM after 24 hrs by propidium iodide staining based flow cytometry (reference value: 48%)", "assay_type": "functional", "conditions": "HL-60"}, "[17]": {"assay": "Cell cycle arrest in human HL60 cells assessed as accumulation at S phase at 20 uM after 24 hrs by propidium iodide staining based flow cytometry (reference value: 48%)", "assay_type": "functional", "conditions": "HL-60"}, "[18]": {"assay": "Cell cycle arrest in human HL60 cells assessed as accumulation at G2/M phase at 5 uM after 24 hrs by propidium iodide staining based flow cytometry (reference value: 6%)", "assay_type": "functional", "conditions": "HL-60"}, "[19]": {"assay": "Cell cycle arrest in human HL60 cells assessed as accumulation at G2/M phase at 10 uM after 24 hrs by propidium iodide staining based flow cytometry (reference value: 6%)", "assay_type": "functional", "conditions": "HL-60"}, "[20]": {"assay": "Cell cycle arrest in human HL60 cells assessed as accumulation at G2/M phase at 20 uM after 24 hrs by propidium iodide staining based flow cytometry (reference value: 6%)", "assay_type": "functional", "conditions": "HL-60"}, "HL-60 [21]": {"test_system": "HL-60", "assay": "Induction of apoptosis in human HL60 cells assessed as down regulation of Bcl-2 after 24 hrs by Western blot", "assay_type": "functional, cell-based"}, "HL-60 [22]": {"test_system": "HL-60", "assay": "Induction of apoptosis in human HL60 cells assessed as up regulation of Bax after 24 hrs by Western blot", "assay_type": "functional, cell-based"}, "HL-60 [23]": {"test_system": "HL-60", "assay": "Induction of apoptosis in human HL60 cells assessed as decrease in Bcl-2/Bax ratio after 24 hrs by Western blot", "assay_type": "functional, cell-based"}, "HL-60 [24]": {"test_system": "HL-60", "assay": "Induction of apoptosis in human HL60 cells assessed as activation of caspase- 3 at 5 to 20 uM after 24 hrs by Western blot", "assay_type": "functional, cell-based"}, "HL-60 [25]": {"test_system": "HL-60", "assay": "Induction of apoptosis in human HL60 cells assessed as activation of caspase- 6 at 5 to 20 uM after 24 hrs by Western blot", "assay_type": "functional, cell-based"}, "HL-60 [26]": {"test_system": "HL-60", "assay": "Induction of apoptosis in human HL60 cells assessed as activation of caspase- 7 at 5 to 20 uM after 24 hrs by Western blot", "assay_type": "functional, cell-based"}, "HL-60 [27]": {"test_system": "HL-60", "assay": "Induction of apoptosis in human HL60 cells assessed as cleavage of PARP-1 at 5 to 20 uM after 24 hrs by Western blot", "assay_type": "functional, cell-based"}, "HL-60 [28]": {"test_system": "HL-60", "assay": "Induction of apoptosis in human HL60 cells assessed as activation of procaspase- 9 at 5 to 20 uM after 24 hrs by Western blot", "assay_type": "functional, cell-based"}, "HL-60 [29]": {"test_system": "HL-60", "assay": "Induction of apoptosis in human HL60 cells assessed as activation of procaspase- 8 at 5 to 20 uM after 24 hrs by Western blot", "assay_type": "functional, cell-based"}, "HL-60 [30]": {"test_system": "HL-60", "assay": "Induction of mitochondrial potential loss in human HL60 cells after 24 hrs by rhodamine-123 staining based flow cytometry (reference value: 3%)", "assay_type": "functional, cell-based"}, "HL-60 [31]": {"test_system": "HL-60", "assay": "Induction of mitochondrial potential loss in human HL60 cells at 5 uM after 24 hrs by rhodamine-123 staining based flow cytometry (reference value: 3%)", "assay_type": "functional"}, "HL-60 [32]": {"test_system": "HL-60", "assay": "Induction of mitochondrial potential loss in human HL60 cells at 10 uM after 24 hrs by rhodamine-123 staining based flow cytometry (reference value: 3%)", "assay_type": "functional"}, "HL-60 [33]": {"test_system": "HL-60", "assay": "Induction of mitochondrial potential loss in human HL60 cells at 20 uM after 24 hrs by rhodamine-123 staining based flow cytometry (reference value: 3%)", "assay_type": "functional"}}, "note": "The source made the active and inactive calls. The rule behind the calls is not given here."}
{"smiles": "C=C(C)[C@@H]1CC[C@]2(C(=O)OCc3cn(-c4ccc(F)cc4)nn3)CC[C@]3(C)[C@H](CC[C@@H]4[C@@]5(C)CC[C@H](O)C(C)(C)[C@@H]5CC[C@]43C)[C@@H]12", "values": [{"measurement": "inhibition of growth at 10 µM", "setting": "[1]", "value": 69, "unit": "%"}, {"measurement": "inhibition of growth at 10 µM", "setting": "[2]", "value": 75, "unit": "%"}, {"measurement": "inhibition of growth at 10 µM", "setting": "[3]", "value": 62, "unit": "%"}, {"measurement": "inhibition of growth at 10 µM", "setting": "A549 [4]", "value": 63, "unit": "%"}, {"measurement": "IC50", "setting": "[5]", "value": 7, "unit": "µM"}, {"measurement": "IC50", "setting": "[6]", "value": 5, "unit": "µM"}, {"measurement": "IC50", "setting": "[7]", "value": 7, "unit": "µM"}, {"measurement": "IC50", "setting": "A549 [8]", "value": 7, "unit": "µM"}, {"measurement": "Activity", "setting": "HL-60 [9]", "value": 5, "unit": "%"}, {"measurement": "Activity", "setting": "HL-60 [10]", "value": 7, "unit": "%"}, {"measurement": "Activity", "setting": "HL-60 [11]", "value": 14, "unit": "%"}, {"measurement": "Activity", "setting": "[12]", "value": 48, "unit": "%"}, {"measurement": "Activity", "setting": "[13]", "value": 53, "unit": "%"}, {"measurement": "Activity", "setting": "[14]", "value": 90, "unit": "%"}, {"measurement": "Activity", "setting": "[15]", "value": 47, "unit": "%"}, {"measurement": "Activity", "setting": "[16]", "value": 44, "unit": "%"}, {"measurement": "Activity", "setting": "[17]", "value": 9, "unit": "%"}, {"measurement": "Activity", "setting": "[18]", "value": 5, "unit": "%"}, {"measurement": "Activity", "setting": "[19]", "value": 3, "unit": "%"}, {"measurement": "Activity", "setting": "[20]", "value": 1, "unit": "%"}, {"measurement": "Activity", "setting": "HL-60 [21]", "value": "Dose-dependent effect"}, {"measurement": "Activity", "setting": "HL-60 [22]", "value": "Active"}, {"measurement": "Activity", "setting": "HL-60 [23]", "value": "Active"}, {"measurement": "Activity", "setting": "HL-60 [24]", "value": "Active"}, {"measurement": "Activity", "setting": "HL-60 [25]", "value": "Active"}, {"measurement": "Activity", "setting": "HL-60 [26]", "value": "Active"}, {"measurement": "Activity", "setting": "HL-60 [27]", "value": "Active"}, {"measurement": "Activity", "setting": "HL-60 [28]", "value": "Active"}, {"measurement": "Activity", "setting": "HL-60 [29]", "value": "Active"}, {"measurement": "Activity", "setting": "HL-60 [30]", "value": "Dose-dependent effect"}, {"measurement": "Activity", "setting": "HL-60 [31]", "value": 7, "unit": "%"}, {"measurement": "Activity", "setting": "HL-60 [32]", "value": 18, "unit": "%"}, {"measurement": "Activity", "setting": "HL-60 [33]", "value": 27, "unit": "%"}]}
